Key:
[1] = system: lung tumour cells; assay: In vitro tumour cell line testing, lung; format: cell-based; settings: after 72 hours
Description: (§1) A549 (CCL-185), BxPC-3 (CRL-1687), HeLa (CCL-2), LoVo (CCL-229), MCF-7 (HTB-22), and PC-3 (CRL-1435) cells were purchased from ATCC (Manassas, Va.). Alamar Blue was purchased from Invitrogen Canada Inc. (Burlington, ON). All other tissue culture and reagent grade materials were purchased from either VWR (Mississauga, ON) or Sigma Aldrich (Oakville, ON).
(§2) All cell lines were maintained at 37° C. in a CO2 cell culture incubator with 5% CO2 and 95% humidity. A549, Lovo, and PC-3 cells were cultured in F-12K media, BxPC-3 cells were culture in RPMI-1640 media, and HeLa and MCF-7 cells were cultured in Eagle's Minimum Essential Media (MEM) with […]. All cell culture media was supplemented with 10% fetal bovine serum (FBS), […] Penicillin, 0.1 mg/mL Streptomycin, 2.5 μg/mL Amphotericin B, and 50 μg/mL Gentamycin. In addition, MEM media for MCF-7 cells also contained 0.01 mg/mL bovine insulin.

[2] = I(a) concentration in Cremophor EL:ethanol composition (HPLC); format: physicochemical; settings: 1:60 w/w I(a):CrEL, ethanol 1:1 v/v to CrEL, room temperature
Description: One to sixty (1:60) ratio by weight of compound I(a) to CrEL was mixed into a glass vial and stirred for about one hour at room temperature to allow solubilization. Dehydrated ethanol USP was then added at a ratio (v/v) one to one (1:1) to CrEL. The mixture was stirred for half hour to ensure the dissolution of the mixture. The final solution was then tested by HPLC to verify compound I(a) concentration.

[3] = system: Healthy PBMC (Peripheral Blood Mononuclear Cells); assay: Cell viability of healthy PBMC
Description: (§3) All cell lines were plated in black, tissue culture treated, 96 well plates at a cell density of 1×10^5 celis/mL (1×10^4 cells/well). Cells were allowed 24 h to attach to the plate prior to being dosed with drug. […] Cells were allowed to incubate for 48 or 72 h. Following incubation cells were stained with Alamar Blue such that the final concentration of Alamar Blue in the test well was 10%. Cells were stained for 2 h and then fluorescence was measured on a Molecular Devices Analyst GT multimode plate reader using an excitation filter of 530/25 nm and an emission filter of 580/10 nm and a 561 nm dichroic mirror. Cell viability was expressed as a percentage of untreated control cells. Data are expressed as mean±standard error and are the average of four independent cell preparations.
(§4) Healthy PBMC (Peripheral Blood Mononuclear Cells) were treated similarly to the above tumour cell line tests.

[4] = Cell viability of healthy PBMC
Description: as §3, §4

[5] = Amount of I(a) dissolved in Vitamin E TPGS composition (HPLC assay of centrifugate); format: physicochemical; settings: 15:100 w/w I(a):Vitamin E TPGS, 45° C., water 8 ml per 100 mg Vitamin E, centrifuged
Description: A stir bar was then added and the solution was continuously mixed while at 45° C. for a minimum of 2 hours to allow full saturation of the product. […] The mixture was then cooled to room temperature, and centrifuged to separate the undissolved material. The centrifugate was assayed for the amount of compound I(a) using HPLC.

[6] = system: pancreas tumour cell line; assay: In vitro tumour cell line testing, pancreas; format: cell-based; settings: for effect on pancreas tumour cell line: after 48 hours
Description: as §1, §2

[7] = system: prostate tumour cell line; assay: In vitro tumour cell line testing, prostate; format: cell-based; settings: for effect on prostate tumour cell line: after 48 hours
Description: as §1, §2

[8] = system: A549, BxPC-3, HeLa, LoVo, MCF-7 and PC-3 cells; assay: In vitro testing on various tumour cell lines (Alamar Blue cell viability); format: cell-based; settings: after 48 hours
Description: as §1, §2

[9] = system: colorectal tumour cell line; assay: In vitro tumour cell line testing, colorectal; format: cell-based; settings: for effect on colorectal tumour cell line: after 48 hours
Description: as §1, §2

[10] = system: cervical tumour cell line; assay: In vitro tumour cell line testing, cervical; format: cell-based; settings: for effect on cervical tumour cell line: after 48 hours
Description: as §1, §2

In the case of `CC/C=C\C/C=C\C/C=C\C/C=C\C/C=C\C/C=C\CCC(=O)O[C@H]1C=C2c3cc4c(c(O)c3C(=O)N[C@H]2[C@H](O)[C@@H]1O)OCO4` [Compound I(a), Narciclasine 2-Hydroxy DHA Conjugate], the “results on lung tumour cells” value [1] is reported as “good results”, the “amount of I(a) contained in resultant formulation” value [2] is reported as 9.9 mg/mL and the “selectivity for cancer cells over healthy cells” value ([3]; PBMC tests compared to tumour cell line tests) is reported as “selectively kill cancer cells at a much higher percentage than healthy cells”. For the same molecule, the “PBMC cell death compared to narciclasine” value ([3]; in DMSO, 48 and 72 hours) was “small increase of cell death”, the viability [4] was roughly 90% and the viability at 2.265 µM [4] was greater than 60%. The “amount of I(a) contained in resultant formulation” value [5] was 1.8 to 1.9 mg/mL, the “effect on pancreas tumour cell line” value [6] was “strong effect” and the “effect against pancreas cancer” value ([6]; after 72 hours) was “works well”. The “effect on prostate tumour cell line” value [7] was “strong effect”, the “results on prostate tumour cells” value ([7]; after 72 hours) was “good results” and the “anti-cancer effect against a wide variety of cancers” value [8] was “strong anti-cancer effect”. The “effect on colorectal tumour cell line” value [9] was “strong effect”, the “effect against colorectal cancer” value ([9]; after 72 hours) was “works well” and the “effect on cervical tumour cell line” value [10] was “strong effect”. For the same molecule, the “results on cervical tumour cells” value ([10]; after 72 hours) was “good results”.

With `O=C1N[C@@H]2C(=C[C@H](O)[C@@H](O)[C@H]2O)c2cc3c(c(O)c21)OCO3` [narciclasine, reference compound] the “effect on pancreas tumour cell line” value [6] was “strong effect”, the “effect on prostate tumour cell line” value [7] was “strong effect” and the “anti-cancer effect against a wide variety of cancers” value [8] was “strong anti-cancer effect”. For the same molecule, the “effect on colorectal tumour cell line” value [9] was “strong effect” and the “effect on cervical tumour cell line” value [10] was “strong effect”.

Source: patent US20140234345A1, “NOVEL ANTI-CANCER ISOC[…] CONJUGATES” (priority 2011, published 2014)
